What was measured:
cathepsin B = cathepsin B (Mus musculus, UniProt P10605); experiment: activity-based labelling in living RAW cells, SDS-PAGE in-gel fluorescence; assay type: cell-based
cathepsin S = cathepsin S (Mus musculus, UniProt O70370); experiment: as above; assay type: cell-based

cathepsin B, sequence (P10605 80-126): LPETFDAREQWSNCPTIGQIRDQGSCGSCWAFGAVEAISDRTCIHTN
cathepsin B, sequence (P10605 129-333): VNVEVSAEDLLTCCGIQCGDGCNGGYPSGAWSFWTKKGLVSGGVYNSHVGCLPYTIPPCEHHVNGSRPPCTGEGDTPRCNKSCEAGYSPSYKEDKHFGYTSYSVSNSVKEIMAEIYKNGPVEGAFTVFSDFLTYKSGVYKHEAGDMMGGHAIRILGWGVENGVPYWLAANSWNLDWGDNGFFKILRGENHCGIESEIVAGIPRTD

- EC50 (cathepsin B): 1600 nM
- EC50 (cathepsin S): 1300 nM
SMILES: CCN1C(=CC=CC=CC2=[N+](CCCCCC(=O)NCCCC[C@H](NC(=O)[C@H](Cc3ccccc3)NC(=O)OCc3ccccc3)C(=O)COC(=O)c3c(C)cccc3C)c3ccc(S(=O)(=O)O)cc3C2(C)C)C(C)(C)c2cc(S(=O)(=O)O)ccc21 [GB123]

Reference: publication PMC3361968 (Chemistry & biology, 2012)
